Results on 11 compounds are retold here after ChEMBL document CHEMBL5126517, “Structure-Activity Relationship in the Leucettine Family of Kinase Inhibitors” (J Med Chem, 2022).

For data set [1], the target named is Dual specificity protein kinase CLK4 (Mus musculus, UniProt O35493). Kind of data set: Inhibition of GST-fused mouse recombinant CLK4 expressed in Escherichia coli using GRSRSRSRSRSR peptide as substrate incubated for 30 mins in presence of ATP by scintillation counting method.
Data set [2] has as its target T1, Dual specificity tyrosine-phosphorylation-regulated kinase 2 (Homo sapiens, UniProt Q92630).
T1 sequence (Q92630 whole entry): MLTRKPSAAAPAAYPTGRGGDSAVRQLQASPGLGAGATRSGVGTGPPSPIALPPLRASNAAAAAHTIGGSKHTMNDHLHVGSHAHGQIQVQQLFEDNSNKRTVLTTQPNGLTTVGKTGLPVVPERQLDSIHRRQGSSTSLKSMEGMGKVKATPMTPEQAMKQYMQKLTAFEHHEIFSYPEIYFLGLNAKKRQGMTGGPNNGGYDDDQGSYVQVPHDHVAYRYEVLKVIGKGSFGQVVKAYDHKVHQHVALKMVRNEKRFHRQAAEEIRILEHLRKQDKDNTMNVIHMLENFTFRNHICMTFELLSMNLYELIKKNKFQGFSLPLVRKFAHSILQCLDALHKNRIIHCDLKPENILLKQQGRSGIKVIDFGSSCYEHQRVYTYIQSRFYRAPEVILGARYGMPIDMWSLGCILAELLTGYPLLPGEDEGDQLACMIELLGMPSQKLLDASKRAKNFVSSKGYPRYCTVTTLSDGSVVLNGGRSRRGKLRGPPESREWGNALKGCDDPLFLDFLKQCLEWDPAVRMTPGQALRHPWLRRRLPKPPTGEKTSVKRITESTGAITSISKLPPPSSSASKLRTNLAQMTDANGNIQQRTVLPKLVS
Kind of data set: Inhibition of GST-fused human recombinant DYRK2 expressed in Escherichia coli using GRSRSRSRSRSR peptide as substrate incubated for 30 mins in presence of ATP by scintillation counting method.

Data set [3] addresses Cannabinoid receptor 1 (Homo sapiens, UniProt P21554). Kind of data set: Antagonist activity at CP-55940-activated CB1 receptor (unknown origin) at 10 uM by beta-arrestin assay relative to control. Also on record: scale not given: the % may be the effect or the level left. The format is functional.
Data set [4] deals with U2OS. Kind of data set: Induction of PI3K/mTor-dependent autophagy in human U2OS cells assessed as number of LC3 foci per cell at 10 uM measured after 4 hrs. The format is cell-based. Particulars: filed as activator.
Data set [5] addresses Dual specificity tyrosine-phosphorylation-regulated kinase 1A (Homo sapiens, UniProt Q13627). Kind of data set: Inhibition of GST-fused human recombinant DYRK1A expressed in Escherichia coli using GRSRSRSRSRSR peptide as substrate incubated for 30 mins in presence of ATP by scintillation counting method.
Data set [6] deals with Dual specificity protein kinase CLK3 (Mus musculus, UniProt O35492). Kind of data set: Inhibition of GST-fused mouse recombinant CLK3 expressed in Escherichia coli using GRSRSRSRSRSR peptide as substrate incubated for 30 mins in presence of ATP by scintillation counting method.
In data set [7] the target is Dual specificity protein kinase CLK2 (Mus musculus, UniProt O35491). Kind of data set: Inhibition of mouse recombinant GST-fused CLK2 expressed in Escherichia coli using GRSRSRSRSRSR peptide as substrate incubated for 30 mins in presence of ATP by scintillation counting method.
Data set [8] can be described thus: Neurotoxicity against mouse HT-22 cells assessed as cell survival at 20 uM treated for 24 hrs by MTS assay. The format is toxicity, cell-based. Particulars: ht-22, 24 h. (Tetrazolium assays rely on reduction of a dye to a coloured formazan, in cell work by metabolically active cells.)
In data set [9] the target is Dual specificity protein kinase CLK1 (Mus musculus, UniProt P22518). Kind of data set: Inhibition of GST-fused mouse recombinant CLK1 expressed in Escherichia coli using GRSRSRSRSRSR peptide as substrate incubated for 30 mins in presence of ATP by scintillation counting method.
Data set [10] relates to HT-22. Kind of data set: Modulation of CLK1 pre-mRNA splicing in mouse HT-22 cells assessed as inclusion of CLK1 exon 4 by measuring change in threshold cycle at 10 uM measured after 4 hrs by real time PCR analysis. The conditions noted are these: filed as modulator. The format is cell-based.
Data set [11] concerns the target T2, Dual specificity tyrosine-phosphorylation-regulated kinase 3 (Homo sapiens, UniProt O43781).
T2 sequence (O43781 whole entry): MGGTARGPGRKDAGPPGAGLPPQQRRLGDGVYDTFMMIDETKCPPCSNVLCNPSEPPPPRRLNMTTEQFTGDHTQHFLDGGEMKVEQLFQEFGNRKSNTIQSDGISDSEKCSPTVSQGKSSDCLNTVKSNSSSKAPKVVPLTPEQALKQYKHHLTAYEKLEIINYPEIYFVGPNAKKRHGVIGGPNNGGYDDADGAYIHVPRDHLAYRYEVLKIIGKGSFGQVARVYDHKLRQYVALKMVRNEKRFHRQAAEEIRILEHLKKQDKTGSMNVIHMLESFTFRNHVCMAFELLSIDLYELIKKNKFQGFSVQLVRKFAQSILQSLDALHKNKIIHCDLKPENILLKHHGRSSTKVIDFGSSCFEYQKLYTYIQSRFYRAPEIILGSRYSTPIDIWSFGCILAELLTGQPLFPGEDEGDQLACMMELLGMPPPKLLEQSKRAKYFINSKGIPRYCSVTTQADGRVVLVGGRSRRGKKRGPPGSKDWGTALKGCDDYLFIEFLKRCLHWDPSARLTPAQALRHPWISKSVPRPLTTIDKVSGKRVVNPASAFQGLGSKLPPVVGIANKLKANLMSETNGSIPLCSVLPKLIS
Kind of data set: Inhibition of GST-fused human recombinant DYRK3 expressed in Escherichia coli using GRSRSRSRSRSR peptide as substrate incubated for 30 mins in presence of ATP by scintillation counting method.

In data set [12] the test system is HT-22. Kind of data set: Neuroprotective activity against glutamate-induced cell death in mouse HT-22 cells treated for 24 hrs by MTS assay. The conditions noted are these: HT-22, 24 h. The format is functional, cell-based.
The target of data set [13] is Glycogen synthase kinase-3 (Sus scrofa, UniProt B2LUN4+I6LNT8). Kind of data set: Inhibition of porcine brain GSK-3alpha/beta using YRRAAVPPSPSLSRHSSPHQpSEDEEE as substrate incubated for 30 mins in presence of ATP by scintillation counting method. The format is tissue-based.
The target of data set [14] is Dual specificity tyrosine-phosphorylation-regulated kinase 1B (Homo sapiens, UniProt Q9Y463).
Data set [15] addresses Serine/threonine-protein kinase pim-1 (Homo sapiens, UniProt P11309). Kind of data set: Inhibition of human recombinant Pim1 expressed in Escherichia coli using histone H1 as substrate incubated for 30 mins in presence of ATP by scintillation counting method.
The target of data set [16] is Casein kinase 2 (Homo sapiens, UniProt P67870+P68400+P19784+Q8NEV1). Kind of data set: Inhibition of human recombinant CK2 using RRRDDDSDDD peptide as substrate incubated for 30 mins in presence of ATP by scintillation counting method. The format is protein assay.

Sequence of Serine/threonine-protein kinase pim-1 (P11309 whole entry): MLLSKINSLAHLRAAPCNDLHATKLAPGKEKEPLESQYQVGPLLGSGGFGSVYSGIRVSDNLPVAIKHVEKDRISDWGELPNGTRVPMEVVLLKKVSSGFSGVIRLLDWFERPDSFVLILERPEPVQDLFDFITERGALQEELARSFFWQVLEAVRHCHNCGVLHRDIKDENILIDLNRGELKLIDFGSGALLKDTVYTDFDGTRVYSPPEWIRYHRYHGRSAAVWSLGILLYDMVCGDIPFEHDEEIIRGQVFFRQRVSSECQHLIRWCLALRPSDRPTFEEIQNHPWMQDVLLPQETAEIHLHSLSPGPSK
Sequence of Dual specificity protein kinase CLK4 (O35493 whole entry, the tested form may be a part): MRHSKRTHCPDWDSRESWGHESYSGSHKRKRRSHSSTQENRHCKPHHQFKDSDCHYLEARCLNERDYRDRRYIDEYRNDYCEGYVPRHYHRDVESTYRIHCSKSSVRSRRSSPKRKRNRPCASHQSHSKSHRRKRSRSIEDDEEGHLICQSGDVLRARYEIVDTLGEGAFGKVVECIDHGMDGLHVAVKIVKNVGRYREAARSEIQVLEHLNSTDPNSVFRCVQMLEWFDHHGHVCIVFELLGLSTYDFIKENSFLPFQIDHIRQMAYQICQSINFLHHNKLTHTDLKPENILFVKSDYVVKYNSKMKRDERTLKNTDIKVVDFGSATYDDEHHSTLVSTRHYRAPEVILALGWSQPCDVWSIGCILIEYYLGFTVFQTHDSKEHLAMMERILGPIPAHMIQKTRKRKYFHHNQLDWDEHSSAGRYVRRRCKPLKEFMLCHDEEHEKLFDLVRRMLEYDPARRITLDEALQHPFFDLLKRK
Sequence of Dual specificity protein kinase CLK2 (O35491 whole entry, the tested form may be a part): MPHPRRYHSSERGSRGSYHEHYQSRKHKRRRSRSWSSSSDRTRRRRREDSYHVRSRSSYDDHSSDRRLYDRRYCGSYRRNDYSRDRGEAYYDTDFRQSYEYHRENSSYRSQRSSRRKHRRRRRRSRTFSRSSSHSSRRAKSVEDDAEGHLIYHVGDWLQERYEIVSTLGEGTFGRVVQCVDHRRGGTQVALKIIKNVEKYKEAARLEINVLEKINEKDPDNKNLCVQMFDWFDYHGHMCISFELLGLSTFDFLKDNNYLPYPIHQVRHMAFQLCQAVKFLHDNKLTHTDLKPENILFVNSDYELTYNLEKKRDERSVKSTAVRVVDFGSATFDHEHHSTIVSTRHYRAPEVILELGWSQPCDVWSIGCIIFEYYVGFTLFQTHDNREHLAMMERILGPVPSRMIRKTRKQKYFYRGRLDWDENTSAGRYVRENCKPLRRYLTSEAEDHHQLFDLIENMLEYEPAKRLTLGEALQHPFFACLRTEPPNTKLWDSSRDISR
Sequence of Dual specificity protein kinase CLK1 (P22518 whole entry, the tested form may be a part): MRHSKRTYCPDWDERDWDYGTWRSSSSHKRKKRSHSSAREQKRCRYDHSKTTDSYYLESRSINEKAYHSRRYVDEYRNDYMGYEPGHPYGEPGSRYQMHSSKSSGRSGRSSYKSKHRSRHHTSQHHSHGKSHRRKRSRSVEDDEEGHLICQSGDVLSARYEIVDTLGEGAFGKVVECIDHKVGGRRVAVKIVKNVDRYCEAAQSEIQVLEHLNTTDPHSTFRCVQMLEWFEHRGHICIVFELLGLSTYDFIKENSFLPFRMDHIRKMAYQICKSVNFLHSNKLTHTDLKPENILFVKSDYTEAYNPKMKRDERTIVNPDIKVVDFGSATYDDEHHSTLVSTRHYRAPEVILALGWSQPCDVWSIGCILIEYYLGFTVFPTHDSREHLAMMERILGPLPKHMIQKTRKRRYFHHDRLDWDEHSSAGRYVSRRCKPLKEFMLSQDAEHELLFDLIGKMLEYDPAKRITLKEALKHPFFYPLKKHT
Sequence of Cannabinoid receptor 1 (P21554 whole entry): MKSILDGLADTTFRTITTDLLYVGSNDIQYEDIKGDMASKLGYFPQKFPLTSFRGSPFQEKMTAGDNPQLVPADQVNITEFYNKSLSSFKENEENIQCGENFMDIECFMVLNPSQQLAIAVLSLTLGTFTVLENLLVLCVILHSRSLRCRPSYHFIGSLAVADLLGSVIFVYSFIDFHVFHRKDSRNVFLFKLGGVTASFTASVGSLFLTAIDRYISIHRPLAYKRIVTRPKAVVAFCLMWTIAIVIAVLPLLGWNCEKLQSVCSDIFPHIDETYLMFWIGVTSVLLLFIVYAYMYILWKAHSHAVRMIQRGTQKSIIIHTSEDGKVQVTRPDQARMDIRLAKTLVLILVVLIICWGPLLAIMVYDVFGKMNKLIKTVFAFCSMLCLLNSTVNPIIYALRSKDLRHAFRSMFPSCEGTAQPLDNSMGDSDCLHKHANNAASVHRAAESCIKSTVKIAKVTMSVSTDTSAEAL
Sequence of Dual specificity tyrosine-phosphorylation-regulated kinase 1B (Q9Y463 whole entry): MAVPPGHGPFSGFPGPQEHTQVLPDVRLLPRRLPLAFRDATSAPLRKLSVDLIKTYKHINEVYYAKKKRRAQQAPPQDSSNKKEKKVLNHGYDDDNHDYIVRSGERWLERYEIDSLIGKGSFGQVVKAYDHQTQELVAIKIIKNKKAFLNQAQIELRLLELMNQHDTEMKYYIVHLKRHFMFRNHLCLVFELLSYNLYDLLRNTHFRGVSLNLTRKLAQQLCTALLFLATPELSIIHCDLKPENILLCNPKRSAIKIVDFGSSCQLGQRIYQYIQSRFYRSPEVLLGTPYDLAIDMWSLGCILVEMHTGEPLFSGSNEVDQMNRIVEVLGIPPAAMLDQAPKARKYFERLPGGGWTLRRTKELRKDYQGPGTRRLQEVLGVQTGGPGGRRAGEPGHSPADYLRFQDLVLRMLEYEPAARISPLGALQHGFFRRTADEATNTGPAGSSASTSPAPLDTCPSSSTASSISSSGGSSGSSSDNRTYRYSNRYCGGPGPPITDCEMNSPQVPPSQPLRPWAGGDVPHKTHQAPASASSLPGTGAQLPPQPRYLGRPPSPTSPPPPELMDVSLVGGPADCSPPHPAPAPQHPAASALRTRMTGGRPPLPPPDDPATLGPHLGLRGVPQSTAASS
Sequence of Dual specificity protein kinase CLK3 (O35492 whole entry, the tested form may be a part): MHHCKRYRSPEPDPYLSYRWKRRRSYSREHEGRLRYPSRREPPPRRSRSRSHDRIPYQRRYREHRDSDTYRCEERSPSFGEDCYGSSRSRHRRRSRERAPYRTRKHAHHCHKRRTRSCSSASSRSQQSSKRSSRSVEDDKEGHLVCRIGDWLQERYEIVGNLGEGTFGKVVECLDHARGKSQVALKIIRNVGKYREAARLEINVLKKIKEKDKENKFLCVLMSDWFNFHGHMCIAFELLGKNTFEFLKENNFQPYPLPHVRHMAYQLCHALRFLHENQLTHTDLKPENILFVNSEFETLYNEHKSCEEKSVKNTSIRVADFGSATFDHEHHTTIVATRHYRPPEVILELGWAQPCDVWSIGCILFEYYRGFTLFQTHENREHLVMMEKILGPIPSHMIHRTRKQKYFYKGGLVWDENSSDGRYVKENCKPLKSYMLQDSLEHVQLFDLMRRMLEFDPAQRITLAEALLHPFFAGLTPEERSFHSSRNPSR

With `Cn1cc(Cc2ccc3c(c2)OCO3)nc1N`, the IC50 (usually the concentration at which inhibition is half-maximal) was 3000 nM in data set [1]; > 10000 nM in data set [2]; > 10000 nM in data set [5]; > 10000 nM in data set [6]; > 10000 nM in [7]; 3200 nM in data set [9]. Moreover, in [11], the IC50 is > 10000 nM. Moreover, the Activity in data set [3] was 8.9%; in [4] it was 5.3; in data set [8] it was “Non-Toxic”. The deltaCT in data set [10] turned out to be 0.38.

In the case of `O=C1NC(Nc2ccccc2)=N/C1=C\c1ccc2c(c1)CCO2`, the half-inhibitory concentration (IC50) in data set [1] is 19 nM; in data set [2], 41 nM; in data set [13], > 10000 nM; in data set [5], 32 nM; in data set [6], 1200 nM; in [7] it was 120 nM. Also, the 50% inhibitory concentration (IC50) in data set [14] came to 88 nM; in [9], 22 nM; in data set [11], 240 nM; in data set [15], 3200 nM; in data set [16] it was 1100 nM. For the same compound, it took 7000 nM to reach a half-maximal effect in data set [12] (EC50). The Activity in [3] (filed as antagonist) is 96.4%; in data set [4], 10.2; in data set [8], “Non-Toxic”.

As for `O=C1NC(Nc2ccccc2)=N/C1=C\c1ccc2c(c1)OCCO2`, the IC50 came out at 140 nM in [1]; 92 nM in data set [2]; 2000 nM in data set [13]; 76 nM in data set [5]; 2400 nM in data set [6]; 880 nM in data set [7]. Also, the IC50 in [14] came out at 250 nM; in data set [9], 130 nM; in [11], 420 nM; in data set [15] it was 1000 nM; in data set [16], 970 nM. It took 10000 nM to reach a half-maximal effect in data set [12] (EC50). The results for the Activity in data set [3] (filed as antagonist), in data set [4] and in data set [8] were 96.3%, 6.6 and “Non-Toxic”, respectively.

Regarding `Cc1ccc(C)c(NC2=N/C(=C\c3ccc4c(c3)OCO4)C(=O)N2)c1`, the concentration for half-maximal inhibition (IC50) in [1] was 23 nM; in [2], 22 nM; in data set [13] it was 10000 nM; in data set [5], 24 nM; in data set [6] it was 3500 nM; in [7], 180 nM. Further, the half-maximal inhibitory concentration (IC50) in [14] is 92 nM; in [9], 50 nM; in [11] it was 800 nM; in data set [15] it was 7700 nM; in [16] it was 1600 nM. Moreover, in data set [12], the concentration giving a half-maximal response (EC50) (commonly the concentration giving half of the maximal effect) worked out at 7000 nM. For the same compound, the values for the Activity in [3], in data set [4] and in [8] were 10.8%, 26 and “Non-Toxic”, respectively.

As for `O=C1NC(Nc2ccc(F)cc2)=N/C1=C\c1ccc2c(c1)OCO2`, the IC50 in data set [1] is 50 nM; in [2], 35 nM; in data set [13], 8800 nM; in data set [5] it was 28 nM; in data set [6] it was > 10000 nM; in [7], 260 nM. For the same compound, the IC50 in [14] is 100 nM; in data set [9] it was 62 nM; in [11], 930 nM; in data set [15], 9300 nM; in data set [16], 8800 nM. Moreover, the EC50 in data set [12] was 3600 nM. Moreover, the Activity in data set [3] (filed as antagonist) is 76.4%; in data set [4], 4.9; in data set [8] it was “Non-Toxic”.

With `O=C1NC(Nc2ccc(N3CCNCC3)cc2)=N/C1=C\c1ccc2c(c1)OCO2`, the half-inhibitory concentration (IC50) in data set [1] stood at 520 nM; in [2], 410 nM; in data set [13] it was 2400 nM; in [5] it was 350 nM; in [6], 9000 nM; in data set [7] it was 1800 nM. Moreover, the half-maximal inhibitory concentration (IC50) in [14] came out at 950 nM; in data set [9], 420 nM; in data set [11], 1200 nM; in [15], 6100 nM; in [16], 2300 nM. Further, a half-maximal response in data set [12] (EC50) required 910 nM. The Activity in data set [3] was -47.5%; in [4], 7.3; in data set [8] it was “Non-Toxic”.

For the compound `O=C1OC(Nc2ccccc2)=N/C1=C\c1ccc2c(c1)OCO2`, the Activity in data set [3] is -37.5%; in data set [4] it was 6.2; in [8], “Non-Toxic”. Besides, the deltaCT in data set [10] is -0.18.

On to `COc1ccc(NC2=N/C(=C\c3ccc4c(c3)OCO4)C(=O)N2)cc1`, for which the IC50 in data set [1] was 130 nM; in [2], 130 nM; in data set [13], > 10000 nM; in [5], 110 nM; in data set [6], > 10000 nM; in data set [7] it was 7500 nM. For the same compound, the 50% inhibitory concentration (IC50) was 270 nM in data set [14], 140 nM in data set [9], 6000 nM in data set [11] and > 10000 nM in [16]. Further, the Activity is 50.5% in data set [3] (filed as antagonist), 5.9 in data set [4] and “Non-Toxic” in data set [8]. The deltaCT in data set [10] was 0.5.

Regarding `O=C1NC(Nc2ccc(O)c(F)c2)=N/C1=C\c1ccc2c(c1)OCO2`, the IC50 in [1] worked out at 19 nM; in data set [2], 11 nM; in data set [13], 550 nM; in [5], 12 nM; in data set [6] it was 400 nM; in data set [7], 120 nM. Further, the IC50 in [14] amounted to 23 nM; in data set [9], 16 nM; in data set [11], 170 nM; in [15], 610 nM; in data set [16], 320 nM. The compound also yielded a half-maximal effective concentration (EC50) in data set [12] of 13000 nM. For the same compound, the Activity in data set [3] was -5.6%; in data set [4] it was 18.2; in [8], “Non-Toxic”.

With `Cc1ccc(NC2=N/C(=C\c3ccc4c(c3)OCO4)C(=O)N2)c(C)c1`, the 50% inhibitory concentration (IC50) in data set [1] is 140 nM; in data set [2] it was 75 nM; in [13], 1400 nM; in [5], 72 nM; in [6] it was > 10000 nM; in data set [7], 1100 nM. Also, the concentration for half-maximal inhibition (IC50) turned out to be 160 nM in data set [14]; 240 nM in data set [9]; 950 nM in [11]; 2500 nM in data set [15]; 2400 nM in [16]. The concentration for a half-maximal effect (EC50) in data set [12] came out at 8000 nM. The Activity in [3] (filed as antagonist) was 65.6%; in data set [4], 5.6; in data set [8], “Non-Toxic”.

In the case of `CCSC1NC(=O)/C(=C/c2ccc3c(c2)OCO3)N1C` (stereo not drawn), the Activity in [3] was -10.7%; in data set [4], 6.5; in data set [8], “Non-Toxic”. Besides, the deltaCT in data set [10] came out at 0.23.
